Data from US11033539B2, “Compounds of formulas (VII), (VIII), (IX), (XI), (XII), (XIII), and (XIV) as muscarinic receptor 4(M4) antagonists for treating neurological diseases” (Neurocrine Biosciences, Inc., priority 2015, dated 2021).

Experiments:
human M3 receptor = human M3 receptor (Homo sapiens (Human), UniProt P20309); test: Radioligand (tritiated N-methylscopolamine) binding assay, M3; settings: CHO cell membranes expressing human M3; 1.5 nM tritiated N-methylscopolamine; 90 min, 37° C.; read-out: Ki against M3 receptor (Table 21, M3)
Sequence of human M3 receptor (P20309 whole entry): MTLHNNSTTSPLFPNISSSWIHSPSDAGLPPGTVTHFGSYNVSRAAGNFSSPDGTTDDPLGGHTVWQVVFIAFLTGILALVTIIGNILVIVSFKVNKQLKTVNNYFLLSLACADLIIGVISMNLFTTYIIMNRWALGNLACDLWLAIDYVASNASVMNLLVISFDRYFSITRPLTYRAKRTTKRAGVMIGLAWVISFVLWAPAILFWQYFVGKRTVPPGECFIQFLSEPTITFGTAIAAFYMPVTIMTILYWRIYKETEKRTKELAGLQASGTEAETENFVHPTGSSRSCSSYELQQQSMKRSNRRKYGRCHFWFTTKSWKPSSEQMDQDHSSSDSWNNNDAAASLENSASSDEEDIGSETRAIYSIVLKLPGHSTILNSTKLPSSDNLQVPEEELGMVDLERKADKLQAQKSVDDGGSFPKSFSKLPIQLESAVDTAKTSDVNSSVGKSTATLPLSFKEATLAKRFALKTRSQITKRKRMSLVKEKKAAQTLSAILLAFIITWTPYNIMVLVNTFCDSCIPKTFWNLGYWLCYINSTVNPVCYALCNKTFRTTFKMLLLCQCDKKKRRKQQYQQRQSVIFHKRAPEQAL
In short: (§1)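 CHO membranes; 1.5 nM radioligand; 12-point compound dose-response, 10 μM to […]; HEPES/NaCl/MgCl2/EDTA buffer pH 7.4; 90 min, 37 °C. PEI-treated glass fiber filtration, radioactivity counting. Ki from inhibition of binding.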

human M1 receptor = human M1 receptor (Homo sapiens (Human), UniProt P11229); test: Radioligand (tritiated N-methylscopolamine) binding assay, M1; settings: CHO cell membranes expressing human M1; 1.5 nM tritiated N-methylscopolamine; 90 min, 37° C.; read-out: Ki against M1 receptor (Table 21, M1)
Sequence of human M1 receptor (P11229 whole entry): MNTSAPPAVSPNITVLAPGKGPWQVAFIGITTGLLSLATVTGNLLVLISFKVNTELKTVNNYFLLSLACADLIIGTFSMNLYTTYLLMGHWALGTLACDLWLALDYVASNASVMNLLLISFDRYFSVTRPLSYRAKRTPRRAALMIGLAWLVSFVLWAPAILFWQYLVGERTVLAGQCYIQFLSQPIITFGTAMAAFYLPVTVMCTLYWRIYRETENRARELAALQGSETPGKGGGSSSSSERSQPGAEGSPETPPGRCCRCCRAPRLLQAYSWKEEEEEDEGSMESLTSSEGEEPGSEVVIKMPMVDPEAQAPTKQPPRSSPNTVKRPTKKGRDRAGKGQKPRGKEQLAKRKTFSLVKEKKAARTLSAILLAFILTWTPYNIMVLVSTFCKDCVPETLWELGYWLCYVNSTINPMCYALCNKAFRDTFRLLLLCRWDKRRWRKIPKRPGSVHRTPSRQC
In short: as §1

human M2 receptor = human M2 receptor (Homo sapiens (Human), UniProt P08172); test: Radioligand (tritiated N-methylscopolamine) binding assay, M2; settings: CHO cell membranes expressing human M2; 1.5 nM tritiated N-methylscopolamine; 90 min, 37° C.; read-out: Ki against M2 receptor (Table 21, M2)
Sequence of human M2 receptor (P08172 whole entry): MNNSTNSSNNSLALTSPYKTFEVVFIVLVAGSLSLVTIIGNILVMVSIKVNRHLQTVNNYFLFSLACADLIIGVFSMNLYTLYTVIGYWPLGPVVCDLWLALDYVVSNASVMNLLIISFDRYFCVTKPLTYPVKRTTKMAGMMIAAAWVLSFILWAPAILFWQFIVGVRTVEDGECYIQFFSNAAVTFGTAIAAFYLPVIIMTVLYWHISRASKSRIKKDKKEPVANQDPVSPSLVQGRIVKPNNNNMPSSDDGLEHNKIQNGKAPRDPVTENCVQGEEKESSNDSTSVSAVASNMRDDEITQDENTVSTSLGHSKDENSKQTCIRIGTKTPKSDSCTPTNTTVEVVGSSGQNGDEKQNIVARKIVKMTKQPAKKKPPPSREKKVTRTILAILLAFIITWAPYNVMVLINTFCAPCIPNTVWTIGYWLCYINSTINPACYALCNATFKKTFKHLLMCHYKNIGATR
In short: as §1

human M4 receptor = human M4 receptor (Homo sapiens (Human), UniProt P08173); test: Radioligand (tritiated N-methylscopolamine) binding assay, M4; settings: Ki against the M4 receptor; membranes from CHO cells expressing human M4; tritiated N-methylscopolamine 1.5 nM; read-out: Ki
Sequence of human M4 receptor (P08173 whole entry): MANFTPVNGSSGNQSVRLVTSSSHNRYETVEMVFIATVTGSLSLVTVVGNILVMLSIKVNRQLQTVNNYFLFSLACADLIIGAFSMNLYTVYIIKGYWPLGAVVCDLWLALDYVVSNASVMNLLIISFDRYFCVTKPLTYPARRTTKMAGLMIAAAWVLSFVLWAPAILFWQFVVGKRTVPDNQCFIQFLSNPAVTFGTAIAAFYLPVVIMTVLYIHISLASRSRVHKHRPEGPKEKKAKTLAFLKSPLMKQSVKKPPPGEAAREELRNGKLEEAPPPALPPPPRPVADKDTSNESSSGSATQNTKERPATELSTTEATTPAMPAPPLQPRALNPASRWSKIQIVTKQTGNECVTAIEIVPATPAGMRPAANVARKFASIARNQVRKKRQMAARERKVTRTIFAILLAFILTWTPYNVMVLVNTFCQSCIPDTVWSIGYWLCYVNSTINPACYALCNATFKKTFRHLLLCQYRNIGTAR
In short: as §1

human M5 receptor = human M5 receptor (Homo sapiens (Human), UniProt P08912); test: Radioligand (tritiated N-methylscopolamine) binding assay, M5; settings: CHO cell membranes expressing human M5; 1.5 nM tritiated N-methylscopolamine; 90 min, 37° C.; read-out: Ki against M5 receptor (Table 21, M5)
Sequence of human M5 receptor (P08912 whole entry): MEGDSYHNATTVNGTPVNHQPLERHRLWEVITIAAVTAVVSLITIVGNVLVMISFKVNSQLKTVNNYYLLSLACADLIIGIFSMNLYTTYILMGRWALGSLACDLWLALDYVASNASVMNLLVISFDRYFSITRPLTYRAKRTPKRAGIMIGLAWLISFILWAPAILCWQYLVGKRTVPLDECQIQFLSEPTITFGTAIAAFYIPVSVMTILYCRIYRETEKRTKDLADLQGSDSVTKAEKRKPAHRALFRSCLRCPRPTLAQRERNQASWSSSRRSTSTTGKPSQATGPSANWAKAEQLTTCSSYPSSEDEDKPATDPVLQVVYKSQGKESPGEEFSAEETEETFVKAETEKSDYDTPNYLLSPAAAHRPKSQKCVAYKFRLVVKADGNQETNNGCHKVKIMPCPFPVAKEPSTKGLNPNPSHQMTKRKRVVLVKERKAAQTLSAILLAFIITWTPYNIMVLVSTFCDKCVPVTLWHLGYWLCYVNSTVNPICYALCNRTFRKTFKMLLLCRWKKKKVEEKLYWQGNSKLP
In short: as §1

| Compound | Ki (human M3 receptor) | Ki (human M1 receptor) | Ki (human M2 receptor) | Ki (human M4 receptor) | Ki (human M5 receptor) |
| --- | --- | --- | --- | --- | --- |
| C[C@@H]1CN(c2ccc(OC(F)(F)F)cc2F)CCN1C(=O)NCCC1CCN(Cc2ccccc2)CC1 [10-12, (2R)-N-[2-(1-benzylpiperidin-4-yl)ethyl]-4-[2-fluoro-4-(trifluoromethoxy)phenyl]-2-methylpiperazine-1-carboxamide] | 100 to 1000 nM | 100 to 1000 nM | 10 to 100 nM | < 10 nM | 100 to 1000 nM |
| N#Cc1cc(N2CCC(C(=O)NCCC3(O)CCN(Cc4ccccc4)CC3)CC2)ccc1OC(F)(F)F [10-20, N-[2-(1-benzyl-4-hydroxypiperidin-4-yl)ethyl]-1-[3-cyano-4-(trifluoromethoxy)phenyl]piperidine-4-carboxamide] | > 1000 nM | > 1000 nM | 100 to 1000 nM | < 10 nM | > 1000 nM |
| N#Cc1cc(N2CCC(C(=O)NC[C@@H](O)C3CCN(Cc4ccccc4)CC3)CC2)ccc1F [10-58, N-[(2S)-2-(1-benzylpiperidin-4-yl)-2-hydroxyethyl]-1-(3-cyano-4-fluorophenyl)piperidine-4-carboxamide] | > 1000 nM | > 1000 nM | > 1000 nM | < 10 nM | > 1000 nM |
| C[C@H]1CN(c2ccc(C#N)cn2)CCC1C(=O)NCCC1CCN(Cc2ccccc2)CC1 (stereo partly drawn) [10-79, (3R)-N-[2-(1-benzylpiperidin-4-yl)ethyl]-1-(5-cyanopyridin-2-yl)-3-methylpiperidine-4-carboxamide] | > 1000 nM | 100 to 1000 nM | 10 to 100 nM | < 10 nM | 100 to 1000 nM |
| C[C@H]1CN(c2ccc(C(F)(F)F)cn2)CCC1C(=O)NCCC1CCN(Cc2ccccc2)CC1 (stereo partly drawn) [10-80, (3R)-N-[2-(1-benzylpiperidin-4-yl)ethyl]-3-methyl-1-[5-(trifluoromethyl)pyridin-2-yl]piperidine-4-carboxamide] | 100 to 1000 nM | 10 to 100 nM | 10 to 100 nM | < 10 nM | 100 to 1000 nM |
| C[C@H]1CN(c2ncc(C(F)(F)F)cc2F)CCC1C(=O)NCCC1CCN(Cc2ccccc2)CC1 (stereo partly drawn) [10-81, (3R)-N-[2-(1-benzylpiperidin-4-yl)ethyl]-1-[3-fluoro-5-(trifluoromethyl)pyridin-2-yl]-3-methylpiperidine-4-carboxamide] | 10 to 100 nM | 10 to 100 nM | 10 to 100 nM | < 10 nM | 100 to 1000 nM |
| Cc1c(C(=O)NCCC2CCN(Cc3ccccc3)CC2)cnc2cc(-c3cccc(C(F)(F)F)c3)nn12 [17-1, N-[2-(1-benzylpiperidin-4-yl)ethyl]-7-methyl-2-[3-(trifluoromethyl)phenyl]pyrazolo[1,5-a]pyrimidine-6-carboxamide] | > 1000 nM | > 1000 nM | 100 to 1000 nM | < 10 nM | > 1000 nM |
| Cc1c(C(=O)NCCC2(O)CCN(Cc3ccccc3)CC2)cnc2cc(-c3cccc(C(F)(F)F)c3)nn12 [17-3, N-[2-(1-benzyl-4-hydroxypiperidin-4-yl)ethyl]-7-methyl-2-[3-(trifluoromethyl)phenyl]pyrazolo[1,5-a]pyrimidine-6-carboxamide] | > 1000 nM | 100 to 1000 nM | 100 to 1000 nM | < 10 nM | > 1000 nM |
| Cc1c(C(=O)NC[C@@H](O)C2CCN(Cc3ccccc3)CC2)cnc2cc(-c3cccc(C(F)(F)F)c3)nn12 [17-5, N-[(2S)-2-(1-benzylpiperidin-4-yl)-2-hydroxyethyl]-7-methyl-2-[3-(trifluoromethyl)phenyl]pyrazolo[1,5-a]pyrimidine-6-carboxamide] | > 1000 nM | 100 to 1000 nM | 10 to 100 nM | < 10 nM | > 1000 nM |
| Cc1c(C(=O)NC[C@H](O)C2CCN(Cc3ccccc3)CC2)cnc2cc(-c3cccc(C(F)(F)F)c3)nn12 [17-6, N-[(2R)-2-(1-benzylpiperidin-4-yl)-2-hydroxyethyl]-7-methyl-2-[3-(trifluoromethyl)phenyl]pyrazolo[1,5-a]pyrimidine-6-carboxamide] | > 1000 nM | > 1000 nM | 100 to 1000 nM | < 10 nM | > 1000 nM |
| Cc1c(C(=O)NCCC2CCN(Cc3ccccc3)CC2)cnc2cc(-c3ccc(F)cc3F)nn12 [18-1, N-[2-(1-benzylpiperidin-4-yl)ethyl]-2-(2,4-difluorophenyl)-7-methyl-pyrazolo[1,5-a]pyrimidine-6-carboxamide] | > 1000 nM | > 1000 nM | 10 to 100 nM | < 10 nM | > 1000 nM |
| Cc1c(C(=O)NCCC2CCN(Cc3ccccc3)CC2)cnc2cc(-c3ccc(F)cc3)nn12 [18-4] | > 1000 nM | 100 to 1000 nM | 100 to 1000 nM | < 10 nM | > 1000 nM |
| Cc1c(C(=O)NCCC2CCN(Cc3ccccc3)CC2)cnc2cc(-c3cc(F)cc(F)c3)nn12 [18-5] | > 1000 nM | > 1000 nM | 100 to 1000 nM | < 10 nM | > 1000 nM |
| Cc1c(C(=O)NCCC2CCN(Cc3ccccc3)CC2)cnc2cc(-c3cccc(OC(F)(F)F)c3)nn12 [18-16] | > 1000 nM | > 1000 nM | 100 to 1000 nM | < 10 nM | > 1000 nM |
| Cc1c(C(=O)NCCC2CCN(Cc3ccccc3)CC2)cnc2cc(-c3cc(F)c(F)c(F)c3)nn12 [18-17] | > 1000 nM | > 1000 nM | 100 to 1000 nM | < 10 nM | > 1000 nM |

Continued, values first:

| Ki (human M3 receptor) | Ki (human M1 receptor) | Ki (human M2 receptor) | Ki (human M4 receptor) | Ki (human M5 receptor) | Compound |
| --- | --- | --- | --- | --- | --- |
| > 1000 nM | 100 to 1000 nM | 100 to 1000 nM | < 10 nM | > 1000 nM | N#Cc1ccc(N2CCC(C(=O)NCCC3CCN(Cc4ccccc4)CC3)CC2)cc1OC(F)(F)F [10-13, N-[2-(1-benzylpiperidin-4-yl)ethyl]-1-[4-cyano-3-(trifluoromethoxy)phenyl]piperidine-4-carboxamide] |
| > 1000 nM | > 1000 nM | 100 to 1000 nM | < 10 nM | > 1000 nM | N#Cc1cc(F)cc(N2CCC(C(=O)NCCC3CCN(Cc4ccccc4)CC3)CC2)c1 [10-14, N-[2-(1-benzylpiperidin-4-yl)ethyl]-1-(3-cyano-5-fluorophenyl)piperidine-4-carboxamide] |
| > 1000 nM | > 1000 nM | 100 to 1000 nM | < 10 nM | > 1000 nM | CC1CN(c2cccc(OC(F)(F)F)c2)CCC1C(=O)NCCC1CCN(Cc2ccccc2)CC1 (centres unmarked) [10-18, N-[2-(1-benzylpiperidin-4-yl)ethyl]-3-methyl-1-[3-(trifluoromethoxy)phenyl]piperidine-4-carboxamide] |
| > 1000 nM | 100 to 1000 nM | 100 to 1000 nM | < 10 nM | > 1000 nM | O=C(NCCC1CCN(Cc2ccccc2)CC1)C1CCN(c2cccc(OC(F)(F)F)c2)CC1 [10-19, N-[2-(1-benzylpiperidin-4-yl)ethyl]-1-[3-(trifluoromethoxy)phenyl]piperidine-4-carboxamide] |
| > 1000 nM | > 1000 nM | 100 to 1000 nM | < 10 nM | > 1000 nM | O=C(NCCC1CCN(Cc2ccccc2)CC1)C1CCN(c2ccc(F)c(F)c2)CC1 [10-21, N-[2-(1-benzylpiperidin-4-yl)ethyl]-1-(3,4-difluorophenyl)piperidine-4-carboxamide] |
| > 1000 nM | > 1000 nM | 100 to 1000 nM | < 10 nM | > 1000 nM | O=C(NCCC1CCN(Cc2ccccc2)CC1)C1CCN(c2cc(F)cc(F)c2)CC1 [10-22, N-[2-(1-benzylpiperidin-4-yl)ethyl]-1-(3,5-difluorophenyl)piperidine-4-carboxamide] |
| > 1000 nM | 100 to 1000 nM | 10 to 100 nM | < 10 nM | > 1000 nM | N#Cc1cc(OC(F)(F)F)cc(N2CCC(C(=O)NCCC3CCN(Cc4ccccc4)CC3)CC2)c1 [10-23, N-[2-(1-benzylpiperidin-4-yl)ethyl]-1-[3-cyano-5-(trifluoromethoxy)phenyl]piperidine-4-carboxamide] |
| > 1000 nM | 100 to 1000 nM | 10 to 100 nM | < 10 nM | > 1000 nM | COc1cc(C#N)cc(N2CCC(C(=O)NCCC3CCN(Cc4ccccc4)CC3)CC2)c1 [10-54, N-[2-(1-benzylpiperidin-4-yl)ethyl]-1-(3-cyano-5-methoxyphenyl)piperidine-4-carboxamide] |
| 100 to 1000 nM | 100 to 1000 nM | 10 to 100 nM | < 10 nM | > 1000 nM | Cc1cc(N2CCC(C(=O)NCCC3CCN(Cc4ccccc4)CC3)CC2)ccc1OC(F)(F)F [10-56, N-[2-(1-benzylpiperidin-4-yl)ethyl]-1-[3-methyl-4-(trifluoromethoxy)phenyl]piperidine-4-carboxamide] |
| > 1000 nM | 100 to 1000 nM | 10 to 100 nM | < 10 nM | > 1000 nM | N#Cc1cc(N2CCC(C(=O)NCCC3CCN(Cc4ccccc4)CC3)CC2)ccc1OC(F)(F)F [10-57, N-[2-(1-benzylpiperidin-4-yl)ethyl]-1-[3-cyano-4-(trifluoromethoxy)phenyl]piperidine-4-carboxamide] |
